Source: patent US8853250B2, “Sodium channel inhibitors” (Icagen, Inc., priority 2007, dated 2014)
Read-outs that look alike come from different tables or passages of the source.

Tests used:
hSCN9A = target: T1, hSCN9A (Homo sapiens, UniProt Q15858); assay: Whole-cell patch-clamp electrophysiology, hSCN9A in HEK cells; format: cell-based
T1 construct: expressed in transfected cells
Protocol: (§1) Human Embryonic Kidney (HEK) cells were transfected with hSCN3A or hSCN9A constructs using lipofectamine reagent (Invitrogen), using standard techniques. […] Clones were screened for expression using the whole-cell voltage-clamp technique.
(§2) HEK cells stably transfected with hSCN3A or hSCN9A were maintained in DMEM medium supplemented with 10% heat-inactivated fetal bovine serum and 400 μg/ml G418 sulfate in an incubator at 37° C. with a humidified atmosphere of 10% CO2. […] For electrophysiological studies, cells were removed from the culture flask by brief trypsinization and replated at low density onto glass cover slips. Cells were typically used for electrophysiological experiments within 24 to 72 h after plating. […]
(§3) The voltage-dependence of inactivation was determined by applying a series of depolarizing prepulses (8 sec long in 10 mV increments) from a negative holding potential. […] Cells were then voltage clamped at the empirically determined V1/2.
(§4) Compounds were tested for their ability to inhibit hSCN3A or hSCN9A sodium channels by activating the channel with a 20 msec voltage step to 0 mV following an 8 second conditioning prepulse to the empirically determined V1/2 (Table B). Compound effect (% inhibition) was determined by difference in current amplitude before and after application of test compounds. […]

hSCN3A = target: T2, hSCN3A (Homo sapiens, UniProt Q9NY46); assay: Whole-cell patch-clamp electrophysiology, hSCN3A in HEK cells; format: cell-based
T2 construct: expressed in transfected cells
Protocol: as §1, §2, §3, §4

Nav1.6 = Nav1.6 (Homo sapiens, UniProt Q9UQD0); conditions: read-out: TTX IC-50; cited from earlier work
Nav1.1 = Nav1.1 (Homo sapiens, UniProt P35498); conditions: read-out: TTX IC-50; cited from earlier work
Nav1.3 = Nav1.3 (Homo sapiens, UniProt Q9NY46); conditions: read-out: TTX IC-50; cited from earlier work
Nav1.8 = Nav1.8 (Homo sapiens, UniProt Q9Y5Y9); conditions: read-out: TTX IC-50; cited from earlier work
Nav1.9 = Nav1.9 (Homo sapiens, UniProt Q9UI33); conditions: read-out: TTX IC-50; cited from earlier work
Nav1.2 = Nav1.2 (Homo sapiens, UniProt Q99250); conditions: read-out: TTX IC-50; cited from earlier work

T2 sequence (Q9NY46 whole entry): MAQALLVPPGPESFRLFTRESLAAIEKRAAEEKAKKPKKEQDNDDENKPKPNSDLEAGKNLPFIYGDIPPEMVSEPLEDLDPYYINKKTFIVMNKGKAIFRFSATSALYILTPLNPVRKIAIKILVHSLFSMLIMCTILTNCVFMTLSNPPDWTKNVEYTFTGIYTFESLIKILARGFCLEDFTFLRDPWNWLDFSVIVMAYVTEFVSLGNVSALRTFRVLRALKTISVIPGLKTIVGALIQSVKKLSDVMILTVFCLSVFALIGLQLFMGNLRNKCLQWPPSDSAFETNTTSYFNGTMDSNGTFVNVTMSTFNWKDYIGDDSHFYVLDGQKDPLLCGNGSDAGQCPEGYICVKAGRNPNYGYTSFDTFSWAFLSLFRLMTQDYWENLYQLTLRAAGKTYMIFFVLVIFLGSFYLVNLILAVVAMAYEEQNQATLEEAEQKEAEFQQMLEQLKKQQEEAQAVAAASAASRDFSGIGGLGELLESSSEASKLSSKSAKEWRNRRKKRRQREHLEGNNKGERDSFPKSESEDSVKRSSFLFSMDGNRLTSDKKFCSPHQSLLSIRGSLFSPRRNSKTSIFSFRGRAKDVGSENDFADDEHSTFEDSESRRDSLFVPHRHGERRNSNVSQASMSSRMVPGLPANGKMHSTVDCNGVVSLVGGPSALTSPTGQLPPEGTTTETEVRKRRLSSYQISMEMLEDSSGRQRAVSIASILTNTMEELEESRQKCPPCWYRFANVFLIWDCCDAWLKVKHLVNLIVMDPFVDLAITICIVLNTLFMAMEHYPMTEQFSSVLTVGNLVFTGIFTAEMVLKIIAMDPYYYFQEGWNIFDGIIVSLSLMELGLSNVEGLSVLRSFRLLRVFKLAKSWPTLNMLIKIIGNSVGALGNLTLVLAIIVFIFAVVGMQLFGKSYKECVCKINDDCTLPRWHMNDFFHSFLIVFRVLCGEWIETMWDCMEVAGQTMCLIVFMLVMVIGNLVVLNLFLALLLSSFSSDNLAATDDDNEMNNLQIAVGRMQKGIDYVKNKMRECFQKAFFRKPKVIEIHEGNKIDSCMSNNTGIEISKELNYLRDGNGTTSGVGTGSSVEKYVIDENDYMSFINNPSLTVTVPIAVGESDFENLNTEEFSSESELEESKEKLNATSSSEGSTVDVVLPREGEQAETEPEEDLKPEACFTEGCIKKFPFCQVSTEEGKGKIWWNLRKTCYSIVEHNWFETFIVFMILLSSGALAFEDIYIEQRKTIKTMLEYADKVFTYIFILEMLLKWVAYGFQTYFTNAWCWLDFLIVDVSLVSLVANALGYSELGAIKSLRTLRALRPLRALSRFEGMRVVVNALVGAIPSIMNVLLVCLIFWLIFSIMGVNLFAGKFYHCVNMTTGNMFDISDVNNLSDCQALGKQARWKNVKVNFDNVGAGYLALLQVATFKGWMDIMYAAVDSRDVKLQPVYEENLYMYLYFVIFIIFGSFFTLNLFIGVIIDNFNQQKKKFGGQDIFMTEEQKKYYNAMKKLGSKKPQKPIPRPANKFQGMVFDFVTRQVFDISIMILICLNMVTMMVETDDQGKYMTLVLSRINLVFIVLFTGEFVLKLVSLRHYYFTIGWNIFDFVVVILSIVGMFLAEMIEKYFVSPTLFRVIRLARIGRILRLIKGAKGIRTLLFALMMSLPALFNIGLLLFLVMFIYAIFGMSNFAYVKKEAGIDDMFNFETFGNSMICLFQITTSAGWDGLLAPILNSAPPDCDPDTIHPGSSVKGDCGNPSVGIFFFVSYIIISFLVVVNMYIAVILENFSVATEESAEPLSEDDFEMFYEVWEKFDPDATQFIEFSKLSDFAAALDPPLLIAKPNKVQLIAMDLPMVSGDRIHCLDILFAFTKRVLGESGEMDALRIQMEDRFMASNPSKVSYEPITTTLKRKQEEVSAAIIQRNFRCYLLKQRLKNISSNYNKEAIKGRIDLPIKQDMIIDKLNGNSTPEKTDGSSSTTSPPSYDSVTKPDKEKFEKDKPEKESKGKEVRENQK
T1 sequence (Q15858 whole entry): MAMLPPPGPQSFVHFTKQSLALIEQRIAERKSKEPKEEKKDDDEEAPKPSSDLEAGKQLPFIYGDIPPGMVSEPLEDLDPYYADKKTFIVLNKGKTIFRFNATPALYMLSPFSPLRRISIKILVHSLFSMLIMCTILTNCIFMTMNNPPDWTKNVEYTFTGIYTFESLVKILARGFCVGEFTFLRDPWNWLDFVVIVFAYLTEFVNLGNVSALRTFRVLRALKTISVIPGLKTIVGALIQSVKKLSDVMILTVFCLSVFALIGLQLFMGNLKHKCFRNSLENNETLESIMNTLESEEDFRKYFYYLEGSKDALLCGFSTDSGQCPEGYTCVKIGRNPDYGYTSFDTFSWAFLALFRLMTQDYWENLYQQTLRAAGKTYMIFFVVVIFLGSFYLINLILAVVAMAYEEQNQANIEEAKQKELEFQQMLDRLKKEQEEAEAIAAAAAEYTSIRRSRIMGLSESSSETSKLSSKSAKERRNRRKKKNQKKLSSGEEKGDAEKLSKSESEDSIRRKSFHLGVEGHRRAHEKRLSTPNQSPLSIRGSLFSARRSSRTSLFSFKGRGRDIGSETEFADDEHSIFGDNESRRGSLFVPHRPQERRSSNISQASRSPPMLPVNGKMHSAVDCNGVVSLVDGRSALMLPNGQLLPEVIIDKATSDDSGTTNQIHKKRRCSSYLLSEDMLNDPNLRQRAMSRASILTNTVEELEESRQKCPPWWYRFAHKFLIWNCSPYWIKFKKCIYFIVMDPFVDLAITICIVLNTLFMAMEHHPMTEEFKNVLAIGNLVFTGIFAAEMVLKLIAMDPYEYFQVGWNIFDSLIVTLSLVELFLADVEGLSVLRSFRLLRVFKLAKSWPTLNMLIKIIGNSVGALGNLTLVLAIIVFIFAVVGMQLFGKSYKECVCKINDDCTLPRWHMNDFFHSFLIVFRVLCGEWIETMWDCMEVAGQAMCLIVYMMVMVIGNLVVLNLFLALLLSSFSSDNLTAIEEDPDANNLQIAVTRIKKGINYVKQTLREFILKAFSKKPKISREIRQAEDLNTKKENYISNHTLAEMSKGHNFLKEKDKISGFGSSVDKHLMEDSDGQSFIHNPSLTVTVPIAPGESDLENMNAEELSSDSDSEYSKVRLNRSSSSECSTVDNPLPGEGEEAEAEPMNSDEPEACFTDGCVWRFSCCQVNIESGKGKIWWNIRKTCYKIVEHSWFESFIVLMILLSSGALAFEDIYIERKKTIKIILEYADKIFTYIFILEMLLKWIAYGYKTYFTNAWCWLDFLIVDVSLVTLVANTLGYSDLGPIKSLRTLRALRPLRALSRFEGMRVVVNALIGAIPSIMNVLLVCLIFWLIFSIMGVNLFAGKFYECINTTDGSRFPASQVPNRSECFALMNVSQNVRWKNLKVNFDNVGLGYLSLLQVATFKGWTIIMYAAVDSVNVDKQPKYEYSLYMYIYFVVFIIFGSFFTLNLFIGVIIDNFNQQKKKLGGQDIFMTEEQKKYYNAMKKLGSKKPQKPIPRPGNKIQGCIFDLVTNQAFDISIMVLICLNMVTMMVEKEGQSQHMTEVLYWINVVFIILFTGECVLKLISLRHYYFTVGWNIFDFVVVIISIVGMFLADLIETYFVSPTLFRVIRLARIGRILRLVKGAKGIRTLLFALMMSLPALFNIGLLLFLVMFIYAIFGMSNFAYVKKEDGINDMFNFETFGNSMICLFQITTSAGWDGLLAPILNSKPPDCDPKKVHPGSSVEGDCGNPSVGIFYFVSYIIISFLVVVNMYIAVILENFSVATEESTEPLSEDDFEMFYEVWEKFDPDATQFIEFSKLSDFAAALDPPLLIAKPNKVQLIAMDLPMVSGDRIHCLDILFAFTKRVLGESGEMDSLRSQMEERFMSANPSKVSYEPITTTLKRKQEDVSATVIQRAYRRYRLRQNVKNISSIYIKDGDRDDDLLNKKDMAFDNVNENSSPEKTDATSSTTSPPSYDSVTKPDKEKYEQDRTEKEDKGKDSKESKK
Nav1.3, sequence (Q9NY46 whole entry, looked up): as the sequence (Q9NY46 whole entry) above

For O=S(=O)(CCc1ccc(C(F)(F)F)cc1)c1ccc(S(=O)(=O)Nc2nccs2)cc1 [Compound 20, N-(thiazol-2-yl)-4-(4-(trifluoromethyl)phenethylsulfonyl)benzenesulfonamide], the IC50 (hSCN9A) was greater than 10000 nM and the IC50 (hSCN3A) was 160 nM.

In the case of O=S(=O)(Nc1nccs1)c1ccc(S(=O)(=O)c2ccccc2)cc1 [Compound 65, 4-(phenylsulfonyl)-N-(thiazol-2-yl)benzenesulfonamide], the IC50 (hSCN9A; estimated IC-50 from single point % inhibition, HEK cells, 8 sec prepulse to V1/2, step to 0 mV, read-out: hSCN9A EIC-50) is reported as 2700 nM and the IC50 (hSCN3A; estimated IC-50 from single point % inhibition, HEK cells, 8 sec prepulse to V1/2, step to 0 mV, read-out: hSCN3A EIC-50) is reported as 5000 nM.

In the case of NC1=N[C@H](O)[C@H]2[C@H]3O[C@]4(O)O[C@@H]([C@@H](O)[C@@]2(N1)[C@@H]4O)[C@]3(O)CO [TTX, tetrodotoxin], the IC50 (Nav1.6) is given as 6 nM, the IC50 (Nav1.1) is given as 10 nM and the IC50 (Nav1.3) is given as 15 nM. For the same compound, the IC50 (Nav1.8) was 50000 nM, the IC50 (Nav1.9) was 1000 nM and the IC50 (Nav1.2) was 10 nM.
